# Data: patent US20260216294A1, “BETA 2-ADRENERGIC RECEPTOR AGONISTS FOR TREATMENT OR PREVENTION OF MUSCLE WASTING” (ATROGI AB, priority 2023, published 2026)
# What was measured:
# L6-myotubes [1] = experiment: Glucose uptake in differentiated L6-myotubes (Biological Example 2); assay type: cell-based; conditions: read-out: Biological example 2 (GU)
# Method in brief: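 Differentiated L6 myotubes were serum-starved overnight in 0.5% fatty-acid-free BSA and then stimulated with compound or isoprenaline at 1×10^−5 M final. After 1 h 40 min cells were washed and re-dosed in glucose-free medium. Twenty minutes later, uptake of 50 nM ^3H-2-deoxyglucose over 10 min was measured by scintillation counting of NaOH lysates.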
# L6-myotubes [2] = experiment: Measurement of intracellular cAMP levels in differentiated L6-myotubes (Biological Example 3); assay type: cell-based; conditions: 0.25 h
# Method in brief: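 Serum-starved differentiated L6 myotubes stimulated 15 min with test compound at 1×10^−5 M final (isoprenaline as reference) in HBSS with 1% BSA, 5 mM HEPES, 1 mM IBMX, pH 7.4. Cells EtOH-extracted, lysed, and intracellular cAMP measured by AlphaScreen.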
# [3] = glucose uptake in differentiated L6-myotubes, compound at 10 μM, activity relative to isoproterenol at 10 μM
# [4] = intracellular cAMP in differentiated L6-myotubes, compound at 10 μM, activity relative to isoproterenol at 10 μM
# [5] = glucose uptake, compound at 10 μM relative to isoproterenol at 10 μM
# [6] = intracellular cAMP, compound at 10 μM relative to isoproterenol at 10 μM
SMILES,Emax at 10 µM (L6-myotubes [1]; [3]) [%],Emax at 10 µM (L6-myotubes [2]; [4]) [%],Emax at 10 µM (L6-myotubes [1]; [5]) [%],Emax at 10 µM (L6-myotubes [2]; [6]) [%]
"COc1ccc(C[C@@]2(C)CC[C@H]([C@H](O)c3cccc(F)c3)N2)cc1 [Compound 366, (R)-{(2R,5R)-5-[(p-methoxyphenyl)methyl]-5-methyl-2-pyrrolidinyl}(m-fluorophenyl)methanol]",> 75,25 to 50,,
"CCCCNC[C@H](O)c1ccc(O)cc1 [Compound 9, (R)-2-(butylamino)-1-(p-hydroxyphenyl)-1-ethanol]",,,> 75,< 25
"CCCCNCC(O)c1ccc(F)c(F)c1 (stereo not drawn) [Compound 56, 2-(butylamino)-1-(3,4-difluorophenyl)-1-ethanol]",,,50 to 75,< 25
"CCC[C@@H]1CCC[C@H]([C@@H](O)c2ccccc2F)N1 [Compound 107, (S)-[(2R,6R)-6-propyl-2-piperidyl](o-fluorophenyl)methanol]",,,25 to 50,< 25
"CC(C)(C[C@H]1CC[C@H](NS(C)(=O)=O)CC1)NC[C@@H](O)c1cccc(C#N)n1 [Compound 428, 6-[(R)-2-{1,1-dimethyl-2-[(1r,4R)-4-(mesylamino)cyclohexyl]ethylamino}-1-hydroxyethyl]-2-pyridinecarbonitrile]",< 25,< 25,,
"O[C@@H](CNCCC[C@H]1CC[C@@H](OCc2ccccc2)CC1)c1cccc(F)c1 [Compound 277, (R)-1-(m-fluorophenyl)-2-{3-[(1s,4R)-4-(benzyloxy)cyclohexyl]propylamino}-1-ethanol]",25 to 50,< 25,,
"CO[C@H]1CC[C@@H](CCCNC[C@H](O)c2cncc(F)c2)CC1 [Compound 260, (R)-1-(5-fluoro-3-pyridyl)-2-{3-[(1s,4R)-4-methoxycyclohexyl]propylamino}-1-ethanol]",> 75,< 25,,
CC12CC(C1)[C@H]([C@H](O)c1cccc(F)c1)N2 [Compound 186],,,> 75,50 to 75
"CO[C@H]1CC[C@H](CCNC[C@H](O)c2cncc(F)c2)CC1 [Compound 225, (R)-1-(5-fluoro-3-pyridyl)-2-{2-[(1r,4R)-4-methoxycyclohexyl]ethylamino}-1-ethanol]",50 to 75,< 25,,
"CO[C@H]1CCC[C@@H](C(C)(C)NC[C@H](O)c2cncc(F)c2)C1 [Compound 270, (R)-2-{1-[(1R,3S)-3-methoxycyclohexyl]-1-methylethylamino}-1-(5-fluoro-3-pyridyl)-1-ethanol]",> 75,50 to 75,,
"CO[C@H]1CC[C@@H](CCNC[C@H](O)c2cncc(F)c2)CC1 [Compound 238, (R)-1-(5-fluoro-3-pyridyl)-2-{2-[(1s,4S)-4-methoxycyclohexyl]ethylamino}-1-ethanol]",> 75,< 25,,
"CC(C)(C[C@H]1CC[C@H](NS(C)(=O)=O)CC1)NC[C@H](O)c1cccc(C(F)(F)F)n1 [Compound 461, (S)-2-{1,1-dimethyl-2-[(1r,4S)-4-(mesylamino)cyclohexyl]ethylamino}-1-[6-(trifluoromethyl)-2-pyridyl]-1-ethanol]",25 to 50,< 25,,
"CO[C@H]1CC[C@@H](C(C)(C)NC[C@H](O)c2cncc(F)c2)CC1 [Compound 252, (R)-1-(5-fluoro-3-pyridyl)-2-{1-methyl-1-[(1s,4S)-4-methoxycyclohexyl]ethylamino}-1-ethanol]",< 25,< 25,,
"O[C@H](c1cncc(F)c1)C12CCC(COCc3ccc(F)cc3)(CC1)N2 [Compound 443, (R)-(4-{[(p-fluorophenyl)methoxy]methyl}-7-azabicyclo[[2.2.1]]hept-1-yl)(5-fluoro-3-pyridyl)methanol]",> 75,25 to 50,,
CC(=O)N[C@H]1CC[C@@H](CC(C)(C)NC[C@H](O)c2cccc(C#N)n2)CC1 [Compound 421],> 75,< 25,,
